Results reported in PMC12410356 (International Journal for Parasitology: Drugs and Drug …, 2025).

What was measured:
[1] = system: E. multilocularis metacestode vesicles; experiment: Phosphoglucose isomerase (PGI) release assay (damage-marker release) on metacestode vesicles; format: cell-based, Echinococcus multilocularis; conditions: overview screen, 10 μM, singlets, relative to 0.1 % Triton X-100, DMSO subtracted; for PGI d5 (relative PGI release): 5 days; for PGI d12 (relative PGI release): 12 days
[2] = system: E. multilocularis metacestode vesicles; experiment: Metacestode vesicle viability assay (ATP, CellTiter-Glo); format: cell-based, Echinococcus multilocularis
Procedure: Viability was assessed after 12 days using the same metacestode vesicles as for the PGI release assay. Triton X-100 was added to each well to a final concentration of 0.1 %. Subsequently the metacestode vesicles were broken mechanically and 50 μL of the supernatant was mixed with 50 μL of CellTiter-Glo® buffer (Promega, Dübendorf, Switzerland). Measurements were performed on a HIDEX Sense microplate reader.

[3] = overview screen, 10 μM, singlets, 12 days, relative to DMSO control

SMILES | PGI d5 (relative PGI release) [1] [%] | PGI d12 (relative PGI release) [1] [%] | Viability d12 (relative viability) [2, 3] [%] | Viability d12 (relative viability) ([2]; 10 µM) [%]
CC(C)(C)c1cccc(-c2nc3cc(C(=N)N)ccc3[nH]2)c1O [MMV1581548] | -1.312 | -24.7037 | 76.2328 | –
C[C@H](NC(=O)C(=O)Nc1ccccc1C(C)(C)C)C(=O)N[C@@H](CC(=O)O)C(=O)COc1c(F)c(F)cc(F)c1F [MMV1580794] | -0.7921 | -19.0747 | 57.1149 | –
CC(C)(C)NC(=O)[C@@H]1C[C@@H]2CCCC[C@@H]2CN1C[C@@H](O)[C@H](Cc1ccccc1)NC(=O)[C@H](CC(N)=O)NC(=O)c1ccc2ccccc2n1 [MMV637879] | -0.1506 | -17.9883 | – | 108.384
O=C(Nc1nnc(-c2ccc(Cl)cc2)o1)c1ccc(F)cc1 [MMV1782140] | -3.764 | 9.726 | 86.8653 | –
O=C(O)[C@H]1C2CCC(CC2)[C@@H]1Nc1nc(-c2c[nH]c3ncc(F)cc23)ncc1F [MMV1593516] | 2.198 | -18.5586 | 121.454 | –
Cc1nc(-c2ccc(C3N(C)c4ccc(F)cc4C(=O)N3c3ccccc3)s2)cs1 (stereo not drawn) [MMV1582492] | -1.6173 | -12.6909 | 101.198 | –
CC[C@@H]1C(=O)OC[C@@H]1Cc1cncn1C.Cl [MMV002516] | -2.121 | -7.265 | 84.666 | –
C=C(C)[C@@H]1CC[C@]2(C(=O)O)CC[C@]3(C)[C@H](CC[C@@H]4[C@@]5(C)CC[C@H](O)C(C)(C)[C@@H]5CC[C@]43C)[C@@H]12 [MMV638198] | -0.508 | -0.6563 | 121.139 | –
CCCC1(C2CC2)c2cc(Cl)ccc2NC(=O)N1C (stereo not drawn) [MMV1782113] | 0.2859 | 0.236 | 107.305 | –
CCN(CC)CCn1c(=N)n(CC(O)COc2ccc(Cl)cc2Cl)c2ccccc21 (stereo not drawn) [MMV000725] | -2.18 | -13.7901 | 72.9764 | –
COC(=O)Nc1nc2c(C)cccc2[nH]1 [MMV1782387] | -0.1734 | -20.8652 | 91.1788 | –
COc1cc(Cc2cnc(N)nc2N)c2c(c1OC)OC(C1CC1)C=C2 (stereo not drawn) [MMV1613563] | -0.539 | -1.956 | 145.38 | –
Nc1cc(N)c2nc(-c3ccccc3)c(Nc3ccc(F)cc3)nc2c1 [MMV1581554] | 4.452 | -9.136 | 104.705 | –
CC(=O)NC[C@H]1CN(c2ccc(N3CCSCC3)c(F)c2)C(=O)O1 [MMV688756] | -1.412 | -2.526 | 97.3563 | –
Fc1ccc(-n2cc(Cn3c(-c4cccc(F)c4)nc4ccccc43)nn2)cc1 [MMV1580850] | -2.0582 | -24.0097 | 34.9853 | –
NC(=O)c1[nH]c2ccc(S(N)(=O)=O)cc2c1-c1ccccc1 [MMV1581556] | 1.2 | 0.8963 | 154.578 | –
O=C(O)C[C@H]1CC[C@H](c2ccc(-c3ccc(Nc4ccc(C(F)(F)F)nc4)cn3)cc2)CC1 [MMV1580498] | 0.9992 | 1.035 | 139.746 | –
CCOc1ccc(C(=O)NCCc2ccccc2)cc1 [MMV124656] | -0.3368 | 10.9951 | 194.706 | –
O=C(NC(=O)N1CCCc2ccccc21)c1ccc(Cl)cc1Cl [MMV1782218] | -2.44 | -25.0073 | 60.7859 | –
CC(C)(C)c1ccc(OCCn2nc(C(=O)O)c3ccccc3c2=O)cc1 [MMV1634387] | -1.414 | -12.4336 | 144.45 | –
NC(=O)c1cnccn1 [MMV003249] | 1.909 | -3.346 | 123.464 | –
